Consider one compound from patent US20220008425A1, “Pharmaceutical Composition for Treating B-Cell Lymphoma” (FUNDAN UNIVERSITY SHANGHAI CANER CENTER, priority 2018, published 2022).

The structures appear in SMILES notation. Entries after “also recorded” stand apart in the source; their conditions may differ.

For data set [1], the system named is AKT phosphorylation, SOX2, FGFR1/2 and CSC-associated molecules in NU-DUL-1-RCHO cells. Put plainly: Immunoblot analysis. The format is cell-based, human. On the technique in general: Immunoblotting shows a protein as a band on a membrane.
Another data set has as its system LY8-RCHO cells. As to conditions: 48 hours. The protocol: (§1) Further, we constructed LY8 and NU-DUL-1 cells resistant to chemotherapeutic drugs. Briefly, LY8-ORI and NU-DUL-1-ORI cells were treated with doxorubicin (Selleck Chemicals, Houston, Tex.) and vincristine (Selleck Chemicals, Houston, Tex.) at a clinical ratio of 50:1.4 by increasing the concentration. […] These cells were then treated with 2 μg/mL of 4-hydroperoxycyclophosphamide (4-HC) (Santa Cruz Biotechnology, Inc., Santa Cruz, Calif.) every 21 days for 3 cycles. The obtained CHO-resistant cells are referred to as LY8-CHO and NU-DUL-1-CHO, respectively. CHO-resistant cells were treated with doxorubicin, vincristine, and 4-HC every 22 days to maintain drug tolerance to CHO. […] To maintain RCHO resistance, LY8-RCHO cells and NU-DUL-1-RCHO cells were treated with 32 μg/mL of rituximab containing 20% (v/v) of NHS every 22 days, followed by treatment with doxorubicin, vincristine, and 4-HC. After 48 hours of treatment with doxorubicin, vincristine and 4-HC, drug resistance to CHO and RCHO was determined by a series of CCK-8 assays.
(§2) Cells were seeded in a 96-well plate at a density of 1×10^4/100 μL/well. Cells were pretreated with IPI-145, abemaciclib, AZD4547, PF-573228, R788, or saracatinib at increasing concentrations with or without CHO for 48 hours prior to performing CytoTox-Glo™ cytotoxicity assay. We performed cytotoxicity assay by using a CytoTox-Glo™ cytotoxicity assay kit (Promega Inc., Madison, Wis.) according to their instructions. Briefly, 50 μL of CytoTox-Glo™ cytotoxicity assay reagent was added to all wells, mixed by orbital shaking, and then incubated for 15 minutes at room temperature. Luminescence of experimental dead cells was detected with a Synergy HT microplate reader (BioTek, Biotek Winooski, Minn.), wherein 50 μL of lysate was added to all wells, mixed and incubated for 15 minutes at room temperature prior to detection of total luminescence. Cytotoxicity was calculated according to the following formula: Cytotoxicity (%)=Experimental dead cell luminescence/Total luminescence×100%.

Another data set concerns NU-DUL-1-RCHO cells. As to conditions: 48 hours. As to the method: as §1, §2
In data set [2] the test system is CD20 and mCRPs (CD46, CD55, CD59) in RCHO-resistant LY8 cells. Put plainly: FACS analysis of membrane expression of CD46, CD55, CD59 and CD20. It counts as cell-based, human. As to the method:
(§3) After being washed with PBS, cells were incubated with fluorescein-conjugated antibody for 30 minutes, followed by washing and resuspension of cells in PBS. Flow cytometry analysis was performed on a cytomics FC500 MPL instrument (Beckman Coulter, Inc., Brea, Calif.) and FlowJo software (Ashland, Inc., OR) was used for analysis. Cells were then sorted according to their relative fluorescence intensity by using a MoFlo XDP sorter (Beckman Coulter Inc., Brea, Calif.).

For data set [3], the system named is CD20 and mCRPs (CD46, CD55, CD59) in RCHO-resistant NU-DUL-1 cells. The data set is described as above. The format is cell-based, human. As to the method: as §3
Data set [4] relates to SOX2 in tumor tissues grown from LY8-RCHO-Luc cells. Nature of the data set: SOX2 immunohistochemical staining of tumor tissues from the transplantation model. It counts as in vivo, SCID mice. As to conditions: tumors from LY8-RCHO-Luc cells; compared with saline control. The source says: (§4) Construction of a transplantation model: we transduced LY8-RCHO cells and NU-DUL-1-RCHO cells with lentiviruses overexpressing the firefly luciferase gene to generate stable cells expressing firefly luciferase, referred to as LY8-RCHO-Luc cells and NU-DUL-1-RCHO-Luc cells, respectively. 8-week-old female SCID mice were purchased from SLAC (Shanghai laboratory animal center). The LY8-RCHO-Luc cells and NU-DUL-1-RCHO-Luc cells were resuspended in PBS prior to intraperitoneal injection of 1.5×10^7 cells per mouse. After intraperitoneal injection of the LY8-RCHO-Luc cells, mice were randomized into 6 groups (7 mice in every group) and given saline, R-CHOP, duvelisib, abemaciclib, R-CHOP+duvelisib, and R-CHOP+abemaciclib, respectively. Mice inoculated with the NU-DUL-1-RCHO-Luc cells were randomly divided into 6 groups (7 mice in every group), and were given saline, R-CHOP, duvelisib, AZD4547, R-CHOP+duvelisib, and R-CHOP+AZD4547, respectively. […] Tumor growth was monitored by bioluminescence at day 50 and day 90 after inoculation. For in vivo luminescence imaging, D-luciferin (Promega, Madison, Wis.) was intraperitoneally injected into mice (150 mg/kg). […] Luminescence images were captured with an exposure time of 30 seconds and the signal intensity of the tumor was measured by using Bruker MI software. The survival time of each mouse was recorded. […]
(§5) Tumor tissues from patients or animal models were fixed with 4% formalin, embedded in paraffin and sectioned. […] Immunoreactivity was then detected by using a GTVision III immunohistochemical detection kit (GK500705; Gene Tech Inc., Shanghai, China) according to its instructions. Quantitative scoring of immunostaining for SOX2, p-AKT, CDK6, FGFR1 and FGFR2 was performed on three independent sections under the microscope, according to the formula: score=3 (strong positive)×percentage+2 (medium positive)×percentage+1 (weak positive)×percentage+0 (negative)×percentage.

Data set [5] has as its system SOX2 in tumor tissues grown from NU-DUL-1-RCHO-Luc cells. Described as above. The format is in vivo, SCID mice. As to conditions: tumors from NU-DUL-1-RCHO-Luc cells; compared with saline control.
Description: as §4, §5

The mark [6] stands for this setting: inhibitor alone at increasing concentrations.
[7] abbreviates: inhibitor at increasing concentrations with CHO.

As for `C[C@H](Nc1ncnc2[nH]cnc12)c1cc2cccc(Cl)c2c(=O)n1-c1ccccc1` [duvelisib], the “AKT phosphorylation and expression of SOX2 and FGFR1/2” value in data set [1] was “reduces expression of SOX2 and FGFR1/2 by inhibiting AKT phosphorylation; also recorded: prevented phosphorylation of AKT and induced degradation of SOX2”. In addition, the “levels of CSC-associated molecules (OCT4, NANOG, KLF4, c-MYC, CD34, CD133)” value in data set [1] is “significantly reduced levels of CSC-associated molecules in the RCHO-resistant cells”. The “cytotoxicity (induction of cell death), inhibitor used alone” value in the data set with LY8-RCHO cells (setting [6]) and with NU-DUL-1-RCHO cells (setting [6]) was “only slightly somewhat cytotoxic; also recorded: negligible effect on direct induction of cell death” each time. Further, the “reversal of resistance to CHO (cytotoxicity of CHO), inhibitor co-treated with CHO” value with LY8-RCHO cells (setting [7]) and with NU-DUL-1-RCHO cells (setting [7]) was “significantly enhanced the cytotoxicity of CHO in the two RCHO-resistant cell lines in a dose-dependent manner; also recorded: significantly reversed resistance of RCHO-resistant cells to CHO” in each case. The “membrane expression of CD20” value in data set [2] and in data set [3] was “significantly reduced” each time. The “membrane expression of the other three mCRPs (CD46, CD55, CD59)” value in data set [2] and in data set [3] was “the other three mCRPs did not” throughout. Further, the “SOX2 expression level in tumor tissue (IHC)” value in data set [4] and in data set [5] was “significantly reduced the expression levels of SOX2 compared with a saline control” in each case.
